Data set [1] deals with A2780. Kind of data set: Cell proliferation IC50, human cancer cell lines in culture. It counts as cell-based. The settings on record: A2780 cell line; for IC50: read-out: IC50 (50% decrease in cell proliferation); for (IC50-Pt(IV)/IC50-Pt(II)): vs cis-amminedichloro(2-methylpyridine)platinum(II). The procedure: (§1) Compounds were tested against human cancer cell lines grown in cell culture according to established procedures (described by Holford, et al., British J. Cancer 1998 77(3) 366-373).

Data set [2] has as its system CH1. The description is as above. The class given is cell-based. The settings on record: CH1 cell line; for IC50: read-out: IC50 (50% decrease in cell proliferation); for (IC50-Pt(IV)/IC50-Pt(II)): vs cis-amminedichloro(2-methylpyridine)platinum(II). Here is the method:
as §1

The subject of data set [3] is CH1R. The description is as above. The class given is cell-based. The settings on record: for resistance factor: CH1R vs CH1, in brackets; for IC50: read-out: IC50 (50% decrease in cell proliferation), CH1R cisplatin-resistant cell line; for (IC50-Pt(IV)/IC50-Pt(II)): CH1R cell line, vs cis-amminedichloro(2-methylpyridine)platinum(II). The procedure: as §1
Data set [4] deals with 2780R. The description is as above. The class given is cell-based. To be noted: for resistance factor: 2780R vs A2780, in brackets; for IC50: read-out: IC50 (50% decrease in cell proliferation), 2780R cisplatin-resistant cell line; for (IC50-Pt(IV)/IC50-Pt(II)): A2780R cell line, vs cis-amminedichloro(2-methylpyridine)platinum(II). Here is the method: as §1
Data set [5] has as its system 41M. The data set is described as above. To be noted: 41M cell line; for IC50: read-out: IC50 (50% decrease in cell proliferation); for (IC50-Pt(IV)/IC50-Pt(II)): vs cis-amminedichloro(2-methylpyridine)platinum(II). The class given is cell-based. The procedure: as §1
For data set [6], the system named is 41MR. The data set is described as above. It counts as cell-based. The settings on record: for resistance factor: 41MR vs 41M, in brackets; for IC50: read-out: IC50 (50% decrease in cell proliferation), 41MR cisplatin-resistant cell line; for (IC50-Pt(IV)/IC50-Pt(II)): 41MR cell line, vs cis-amminedichloro(2-methylpyridine)platinum(II). Here is the method:
as §1

Data set [7] is described as follows: Aqueous solubility at ambient conditions. It counts as physicochemical. To be noted: for Aqueous Solubility / Ratio to Solubility of bis-butyrato-ammine-(cyclohexylamine)dichloro platinum (IV) / Ratio to Solubility of cis-ammine(2-methylpyridine)Dichloroplatinum (II) / Ratio to Solubility of cisplatin: ambient conditions.
Data set [8] concerns CH1 tumor containing xenografts. Kind of data set: In vivo growth delay in CH1 tumor xenografts. To be noted: administered at maximum tolerated dose. An excerpt: This is in contrast to the growth delay of 0.6 days, achieved with compound E (FIG. 1).
For data set [9] the following is noted: background statement; cited from earlier work.
The mark [10] stands for this setting: solubility ratio to cis-amminedichloro(2-methylpyridine)platinum(II).

Read-outs that look alike come from different tables or passages of the source. Where only a bound is given, the exact number is not on record here.

Consider `Cc1ccccn1.N.[Cl-].[Cl-].[Pt+2]` [cis-ammine(2-methylpyridine)dichloroplatinum(II), reference compound], for which the IC50 stood at 2.5 µM in [1]; 2.2 µM in data set [2]; 2.1 µM in data set [3]; 12 µM in data set [4]; 5.6 µM in [5]; 6 µM in data set [6]. The resistance factor result was “(1)” in data set [3], “(4.8)” in [4] and “(1.1)” in data set [6]. Moreover, the “Aqueous Solubility” value in data set [7] is 0.7 mg/mL. In data set [7], the “Ratio to Solubility of bis-butyrato-ammine-(cyclohexylamine)dichloro platinum (IV)” value (from here on “Ratio to Solubility … (IV)”) was 3.5. Further, the “Ratio to Solubility of cis-ammine(2-methylpyridine)Dichloroplatinum (II)” value (“Ratio to Solubility … (II)” below) in data set [7] was determined as 1. For the same compound, the “Ratio to Solubility of cisplatin” value in data set [7] is recorded as 0.7.

Take `CC(=O)[O][Pt]([Cl])([O]C(C)=O)[O]C(C)=O.Cc1ccccn1.N` [Compound D]: the IC50 in [1] was 47 µM; in data set [2], 46 µM; in data set [3], 88 µM; in [4], more than 100 µM; in [5], more than 100 µM; in data set [6], more than 100 µM. In addition, the resistance factor entry in data set [3] was “(1.9)”. The “Aqueous Solubility” value in [7] came out at 80 mg/mL.

In the case of `CC(=O)[O][Pt]([OH])([Cl])[O]C(C)=O.Cc1ccccn1.N` [Compound E], in data set [8], the growth delay was 0.6 days. In data set [1], the “(IC50-Pt(IV)/IC50-Pt(II))” value was 4.2 and the IC50 was found to be 10.5 µM. Moreover, in [2], the “(IC50-Pt(IV)/IC50-Pt(II))” value came to 8.2 and the IC50 was 18 µM. In [3], the “(IC50-Pt(IV)/IC50-Pt(II))” value was 21.9, the resistance factor entry was “(2.6)” and the IC50 came to 46 µM. In data set [4], the resistance factor result is reported as “(5.9)”, the “(IC50-Pt(IV)/IC50-Pt(II))” value was found to be 5.2 and the IC50 stood at 62 µM. For the same compound, in [5], the “(IC50-Pt(IV)/IC50-Pt(II))” value is on record as 13.9 and the IC50 amounted to 78 µM. Moreover, in [6], the “(IC50-Pt(IV)/IC50-Pt(II))” value amounted to 13, the resistance factor result was “(1)” and the IC50 is 78 µM. In data set [7], the “(SolPt(IV)/SolPt(II))” value is listed as 21.4, the “Aqueous Solubility” value amounted to 15 mg/mL, the “Ratio to Solubility … (IV)” value was 75 and the “Ratio to Solubility … (II)” value is 21.4. Also, the “Ratio to Solubility of cisplatin” value in [7] is 15.

For `N.N.[Cl][Pt][Cl]` [cisplatin, [PtCl2(NH3)2], reference compound], the growth delay in data set [8] was found to be 34 days. In addition, the IC50 in data set [1] worked out at 0.33 µM; in data set [2] it was 0.11 µM; in data set [3] it was 0.71 µM; in data set [4] it was 5.2 µM; in data set [5], 0.26 µM; in [6], 1.2 µM. Also, the resistance factor result in [3] is “(6.5)”; in data set [4] it was “(15.7)”; in data set [6], “(4.6)”.

For `CC(=O)[O][Pt]([NH2])([Cl])([Cl])([NH]C1CCCCC1)[O]C(C)=O` [Compound F, bis-acetatoammine(cyclohexylamine)dichloroplatinum(IV), reference compound], the IC50 in [1] is 0.4 µM; in data set [3], 0.4 µM; in [4], 1.84 µM; in [5], 0.5 µM; in data set [6] it was 0.6 µM. The resistance factor entry in [3] is recorded as “(4)”; in [4], “(4.6)”; in [6], “(1.2)”. In data set [7], the “Aqueous Solubility” value was less than 1 mg/mL. Also, in [7], the “Ratio to Solubility … (IV)” value is given as less than 5. For the same compound, in [7], the “Ratio to Solubility … (II)” value was less than 1.4. Further, in data set [7], the “Ratio to Solubility of cisplatin” value was less than 1.

Turning to `Cc1cccc[n+]1[Pt-2]([NH3+])([OH])([OH])([Cl])[Cl]` [Compound B], in data set [1], the “(IC50-Pt(IV)/IC50-Pt(II))” value was found to be 1.8 and the IC50 turned out to be 4.5 µM. Moreover, in data set [2], the “(IC50-Pt(IV)/IC50-Pt(II))” value is listed as 1.5 and the IC50 is 3.4 µM. For the same compound, in data set [3], the “(IC50-Pt(IV)/IC50-Pt(II))” value came out at 3.5, the resistance factor entry is on record as “(2.2)” and the IC50 came to 7.4 µM. Moreover, in data set [4], the resistance factor entry was “(8)”, the “(IC50-Pt(IV)/IC50-Pt(II))” value turned out to be 3.0 and the IC50 was found to be 36 µM. In data set [5], the “(IC50-Pt(IV)/IC50-Pt(II))” value amounted to 1.8 and the IC50 came out at 10 µM. Further, in data set [6], the “(IC50-Pt(IV)/IC50-Pt(II))” value came out at 3.2, the resistance factor result was “(1.9)” and the IC50 turned out to be 19 µM. In addition, in data set [7], the “Aqueous Solubility” value is “˜5 mg/ml”, the “Ratio to Solubility … (IV)” value is recorded as 25, the “Ratio to Solubility … (II)” value is 7.1 and the “Ratio to Solubility of cisplatin” value stood at 5. In addition, the “(SolPt(IV)/SolPt(II))” value in [7] (setting [10]) worked out at 7.1.

Regarding `CC(=O)[O][Pt]([OH])([Cl])[O]C(C)=O.Cc1ccccn1.N` [Compound C], the “(IC50-Pt(IV)/IC50-Pt(II))” value in data set [1] is 3.4; in data set [2], 3.9; in [3], 8.1; in data set [4], 3.8; in data set [5], 4.8; in [6] it was 4.3. Further, the IC50 turned out to be 8.6 µM in data set [1]; 8.6 µM in data set [2]; 17 µM in data set [3]; 45 µM in [4]; 27 µM in [5]; 26 µM in data set [6]. Also, the resistance factor result in data set [3] is recorded as “(1.8)”; in data set [4] it was “(5.2)”; in data set [6] it was “(0.96)”. In addition, the “Aqueous Solubility” value in data set [7] was determined as 20 mg/mL. Also, in data set [7], the “Ratio to Solubility … (IV)” value is recorded as 100. The “Ratio to Solubility … (II)” value in [7] was 28.6. The “Ratio to Solubility of cisplatin” value in [7] is 20. In [7] (setting [10]), the “(SolPt(IV)/SolPt(II))” value stood at 28.6.

In the case of `CCCC(=O)[O][Pt]([NH2])([Cl])([Cl])([NH]C1CCCCC1)[O]C(=O)CCC` [Compound G, bis-butyratoammine(cyclohexylamine)dichloroplatinum(IV), reference compound], the IC50 in data set [2] stood at 0.0066 µM; in [3], 0.024 µM; in [5], 0.072 µM; in [6], 0.048 µM. In addition, the resistance factor result is given as “(3.7)” in [3] and “(0.67)” in data set [6].

In turn, “ammine(chloro)trihydroxo(2-methylpyridine)platinum(IV) [Compound A]” gave a growth delay in data set [8] of 32.8 days. Moreover, the “(IC50-Pt(IV)/IC50-Pt(II))” value in data set [1] is 3.8; in [2] it was 2.7; in [3], 5.7; in [4], 3.4; in [5], 4.5; in data set [6], 7.5. Further, the IC50 worked out at 9.5 µM in data set [1]; 6 µM in [2]; 12 µM in [3]; 41 µM in data set [4]; 25 µM in [5]; 45 µM in data set [6]. Also, the resistance factor result in [3] is on record as “(2)”; in data set [4] it was “(4.3)”; in data set [6], “(1.8)”.

For `[NH2][Pt]1([NH2])[O]C(=O)C2(CCC2)C(=O)[O]1` [carboplatin, diammine[1,1-cyclobutanedicarboxylato (2-)]-O,O′-platinum(II), reference compound], the Aqueous Solubility in [9] and in data set [7] was 14 mg/mL in each case. Besides, the IC50 in data set [1] turned out to be 1.8 µM; in data set [2], 1.3 µM; in data set [3] it was 6 µM; in [4], 25.9 µM; in [5] it was 3.3 µM; in data set [6], 8.8 µM. For the same compound, the resistance factor entry in data set [3] is “(4.5)”; in [4], “(14.4)”; in data set [6] it was “(2.7)”. For the same compound, the “Ratio to Solubility … (IV)” value in [7] stood at 70. Also, the “Ratio to Solubility … (II)” value in [7] was 20. In [7], the “Ratio to Solubility of cisplatin” value is reported as 14.
